The text below walks through data of patent US7825260B2, “Aminopropanol derivatives as sphingosine-1-phosphate receptor modulators” (Novartis AG, priority 2003, dated 2010).

Usually melting point stands for the temperature of the solid-liquid transition. A word on the EC50: it is the concentration at which the effect is half-maximal.

Series [1] deals with peripheral blood lymphocytes. The series is described as follows: In vivo: Blood Lymphocyte Depletion. As to conditions: rats, p.o. How it is done:
B. In vivo: Blood Lymphocyte Depletion
A compound of formula I or the vehicle is administered orally by gavage to rats. Tail blood for hematological monitoring is obtained on day −1 to give the baseline individual values, and at 2, 6, 24, 48 and 72 hours after application. In this assay, the compounds of formula I deplete peripheral blood lymphocytes when administered at a dose of 0.03 to 3 mg/kg. For example, following results are obtained: depletion of peripheral blood lymphocytes by more than 50%.

For series [2], the target named is T1, human S1P receptor EDG-8 (S1P5) (Homo sapiens, UniProt Q9H228).
T1 construct: expressed in transfected cells
The series is described as follows: S1P receptor profiling, GTP[γ-35S] binding SPA, S1P5. As to conditions: for S1P5 mode of action: Agon = agonist; for EC50: GTP[γ-35S] binding to membranes of transfected CHO or RH7777 cells. It counts as biochemical. As for the experimental part: (§1) Sphingosine-1-phosphate (S1P) Receptor Profiling
(§2) Agonist activities of compounds are tested on the human S1P receptors EDG-1 (S1P1), EDG-3 (S1P3), EDG-5 (S1P2), EDG-6 (S1P4) and EDG-8 (S1P5). […] The assay technology used is SPA (scintillation proximity based assay). Briefly, DMSO dissolved compounds are serially diluted and added to SPA-bead (Amersham-Pharmacia) immobilised S1P receptor expressing membrane protein (10-20 μg/well) in the presence of 50 mM Hepes, 100 mM NaCl, 10 mM MgCl2, 10 μM GDP, 0.1% fat free BSA and 0.2 nM GTP [γ-^35S] (1200 Ci/mmol). After incubation in 96 well microtiterplates at RT for 120 min, unbound GTP [γ-^35S] is separated by a centrifugation step. Luminescence of SPA beads triggered by membrane bound GTP [γ-^35S] is quantified with a TOPcount plate reader (Packard). EC50s are calculated using standard curve fitting software. In this assay, the compounds of formula I have a binding affinity to S1P1 receptor <50 nM.
On the technique in general: Binding of GTPγS marks nucleotide exchange on a G protein.

Series [3] concerns the target T2, human S1P receptor EDG-3 (S1P3) (Homo sapiens, UniProt Q99500).
T2 construct: expressed in transfected cells
The series is described as follows: S1P receptor profiling, GTP[γ-35S] binding SPA, S1P3. It counts as biochemical. As to conditions: for S1P3 mode of action: Agon = agonist; for EC50: GTP[γ-35S] binding to membranes of transfected CHO or RH7777 cells. How it is done:
as §1, §2

Series [4] has as its target T3, human S1P receptor EDG-6 (S1P4) (Homo sapiens, UniProt O95977).
T3 construct: expressed in transfected cells
T3 sequence (O95977 1-384): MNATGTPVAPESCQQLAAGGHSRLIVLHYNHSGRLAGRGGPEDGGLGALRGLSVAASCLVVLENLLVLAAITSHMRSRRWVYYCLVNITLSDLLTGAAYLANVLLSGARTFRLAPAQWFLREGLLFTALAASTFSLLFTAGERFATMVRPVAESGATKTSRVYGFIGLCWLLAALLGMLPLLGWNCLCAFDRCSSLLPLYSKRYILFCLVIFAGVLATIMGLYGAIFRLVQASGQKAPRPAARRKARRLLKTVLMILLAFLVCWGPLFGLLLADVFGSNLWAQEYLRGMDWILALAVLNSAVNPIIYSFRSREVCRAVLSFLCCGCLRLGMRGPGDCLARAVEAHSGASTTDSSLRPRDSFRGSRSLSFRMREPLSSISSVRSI
Kind of series: S1P receptor profiling, GTP[γ-35S] binding SPA, S1P4. Format: biochemical. As to conditions: for S1P4 mode of action: Agon = agonist; for EC50: GTP[γ-35S] binding to membranes of transfected CHO or RH7777 cells. As for the experimental part:
as §1, §2

Series [5] addresses T4, human S1P receptor EDG-1 (S1P1) (Homo sapiens, UniProt P21453).
T4 construct: expressed in transfected cells
Kind of series: S1P receptor profiling, GTP[γ-35S] binding SPA, S1P1. As to conditions: for S1P1 mode of action: Agon = agonist; for EC50: GTP[γ-35S] binding to membranes of transfected CHO or RH7777 cells. It counts as biochemical. As for the experimental part: as §1, §2

T1 sequence (Q9H228 whole entry): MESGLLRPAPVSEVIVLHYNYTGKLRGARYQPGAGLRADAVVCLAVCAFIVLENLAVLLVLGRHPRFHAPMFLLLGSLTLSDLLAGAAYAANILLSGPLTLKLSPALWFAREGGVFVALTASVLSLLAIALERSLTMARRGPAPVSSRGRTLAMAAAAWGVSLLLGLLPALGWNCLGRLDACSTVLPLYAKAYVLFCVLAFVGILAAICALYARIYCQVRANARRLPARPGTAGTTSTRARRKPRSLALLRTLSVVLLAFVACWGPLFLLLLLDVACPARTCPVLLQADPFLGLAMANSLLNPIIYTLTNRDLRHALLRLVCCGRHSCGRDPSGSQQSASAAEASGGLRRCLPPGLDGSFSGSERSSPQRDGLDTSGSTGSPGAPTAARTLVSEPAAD
T4 sequence (P21453 whole entry): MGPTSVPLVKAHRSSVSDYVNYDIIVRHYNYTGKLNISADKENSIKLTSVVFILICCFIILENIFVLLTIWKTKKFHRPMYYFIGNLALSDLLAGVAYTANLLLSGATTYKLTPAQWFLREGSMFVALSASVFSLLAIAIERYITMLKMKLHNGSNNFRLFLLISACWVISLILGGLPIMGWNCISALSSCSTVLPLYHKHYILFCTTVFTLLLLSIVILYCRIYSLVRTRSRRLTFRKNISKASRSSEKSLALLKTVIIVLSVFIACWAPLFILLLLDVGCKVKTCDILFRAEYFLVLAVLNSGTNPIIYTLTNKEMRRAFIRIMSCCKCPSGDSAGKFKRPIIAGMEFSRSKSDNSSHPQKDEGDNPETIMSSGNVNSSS
T2 sequence (Q99500 whole entry): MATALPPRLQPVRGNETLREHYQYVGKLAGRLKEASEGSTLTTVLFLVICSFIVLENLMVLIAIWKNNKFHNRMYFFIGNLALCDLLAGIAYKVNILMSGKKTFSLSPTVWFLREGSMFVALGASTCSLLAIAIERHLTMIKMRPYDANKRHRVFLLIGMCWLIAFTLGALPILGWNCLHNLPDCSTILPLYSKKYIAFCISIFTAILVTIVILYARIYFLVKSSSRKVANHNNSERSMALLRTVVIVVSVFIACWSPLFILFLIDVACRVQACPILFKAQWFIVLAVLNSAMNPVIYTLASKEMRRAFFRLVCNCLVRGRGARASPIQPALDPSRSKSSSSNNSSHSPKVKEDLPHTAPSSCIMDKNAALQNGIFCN

With `CCCCCOc1ccc2cc(CC[C@@](C)(N)CO)ccc2c1` [Example 1, (R)-2-amino-2-methyl-4-(6-pentyloxynaphthalen-2-yl)butan-1-ol], the “dose giving depletion of peripheral blood lymphocytes by more than 50%” value (from here on “dose giving depletion … by more than 50%”) in series [1] (after 6 h) is reported as 0.02 mg/kg p.o. after 6 h,; in series [1] (after 24 h) it was 0.3 mg/kg p.o. after 24 h,; in series [1] (after 48 h) it was over 1 mg/kg after 48 h.
As for `CCCCCOc1ccc2cc(CC[C@@](C)(N)COP(=O)(O)O)ccc2c1` [Example 12, Phosphoric acid mono-[(R)-2-amino-2-methyl-4-(6-pentyloxynaphthalen-2-yl)but-1-yl]ester], the melting point was 266 to 267 °C. In series [2], the “S1P5 mode of action” value is on record as “Agon” and the EC50 is 0.1 nM. For the same compound, in series [3], the “S1P3 mode of action” value was “Agon” and the response was half-maximal at 8.4 nM (EC50). Moreover, in series [4], the “S1P4 mode of action” value is listed as “Agon” and a half-maximal effect (EC50) was put at 0.4 nM. In series [5], the “S1P1 mode of action” value is listed as “Agon” and a half-maximal effect (EC50) was put at 0.3 nM.
In the case of `C[C@@](N)(CCc1ccc2cc(OCCCC(F)(F)C(F)(F)F)ccc2c1)COP(=O)(O)O` [Example 13], in series [2], the “S1P5 mode of action” value is given as “Agon” and the 50% effective concentration (EC50) is 0.4 nM. For the same compound, in series [3], the “S1P3 mode of action” value is on record as “Agon” and a half-maximal effect (EC50) was put at 5.7 nM. In series [4], the “S1P4 mode of action” value is given as “Agon” and the EC50 came out at 1.2 nM. Moreover, in series [5], the “S1P1 mode of action” value was “Agon” and the EC50 was determined as 0.06 nM.
As for `CCCOc1ccc2cc(CC[C@@](C)(N)COP(=O)(O)O)ccc2c1` [Example 14], in series [2], the “S1P5 mode of action” value was “Agon” and a half-maximal response (EC50) required 0.8 nM. Also, in series [3], the “S1P3 mode of action” value is “inverse” and the EC50 came out at 47 nM. Besides, in series [4], the “S1P4 mode of action” value was “Agon” and the EC50 was 1 nM. In series [5], the “S1P1 mode of action” value is “Agon” and the EC50 was found to be 2.8 nM.
For `C[C@](N)(CO)CCc1ccc2oc(-c3ccc4c(c3)OCO4)nc2c1` [Example 25, (R)-2-Amino-4-(2-benzo[1,3]dioxol-5-yl-benzoxazol-5-yl)-2-methyl-butan-1-ol], the results for the “dose giving depletion … by more than 50%” value in series [1] (after 6 h) and in series [1] (after 48 h) were 0.06 mg/kg p.o. after 6 h and 0.3 mg/kg after 48 h, respectively.
For `CCOc1cccc(-c2nc3cc(CC[C@@](C)(N)CO)ccc3o2)c1` [Example 26, (R)-2-Amino-4-[2-(3-ethoxy-phenyl)-benzoxazol-5-yl]-2-methyl-butan-1-ol], in that order: 0.03 mg/kg p.o. after 6 h and 0.2 mg/kg after 48 h.
For the compound `C[C@](N)(CO)CCc1ccc2oc(-c3ccccc3)cc2c1` [Example 37, (R)-2-Amino-2-methyl-4-(2-phenyl-benzofuran-5-yl)-butan-1-ol], the “dose giving depletion … by more than 50%” value in series [1] (after 6 h) came to 0.40 mg/kg p.o. after 6 h.
Take `CCCCCc1nc2cc(CC[C@@](C)(N)COP(=O)(O)O)ccc2o1` [Example 42, Phosphoric acid mono-[(R)-2-amino-2-methyl-4-(2-pentyl-benzoxazol-5-yl)-butyl]ester]: in series [2], the “S1P5 mode of action” value is on record as “Agon” and the EC50 worked out at 5 nM. Besides, in series [3], the “S1P3 mode of action” value was “Agon” and the EC50 was over 1000 nM. In addition, in series [4], the “S1P4 mode of action” value was “Agon” and it took 9 nM to reach a half-maximal effect (EC50). Besides, in series [5], the “S1P1 mode of action” value is reported as “Agon” and the response was half-maximal at 17 nM (EC50).
With `C[C@@](N)(CCc1ccc2oc(-c3ccccc3)cc2c1)COP(=O)(O)O` [Example 49, Phosphoric acid mono-[(R)-2-amino-2-methyl-4-(2-phenyl-benzofuran-5-yl)-butyl]ester], in series [2], the “S1P5 mode of action” value was “Agon” and a half-maximal response (EC50) required 0.4 nM. Further, in series [3], the “S1P3 mode of action” value is given as “Agon” and the EC50 was found to be 1180 nM. Moreover, in series [4], the “S1P4 mode of action” value was “Agon” and the midpoint of the response, the EC50, lay at 0.7 nM. Besides, in series [5], the “S1P1 mode of action” value is recorded as “Agon” and the EC50 was determined as 1.6 nM.
